Measurements as given in patent US9821072B2, “Activated neurotensin molecules and the uses thereof” (priority 2014, dated 2017).
Bridge positions count the residues as written; N and C are the ends. Square brackets hold non-standard residues; d marks the D form. Peptide text beside a SMILES is read from it. * marks the point of attachment. Pen = CC(C)(S)[C@H](N)C(=O)O; Tle = CC(C)(C)[C@H](N)C(=O)O; Pip = O=C(O)[C@@H]1CCCCN1; Propionyl = CCC(=O)*; Sar = CNCC(=O)O

What was measured:
[1] = system: FVB/N mice with KA-induced status epilepticus; experiment: Kainic acid-induced status epilepticus model (body temperature, seizures, neurodegeneration, neuroinflammation, mossy fiber sprouting); type: in vivo, mouse; settings: administered 30 min after SE onset
Excerpt: In the present case, excitotoxicity was induced by subcutaneous (s.c.) injection of kainic acid (KA), a pro-convulsant agent known to induce a status epilepticus (SE) with excitotoxicity, neuroinflammation, and severe neuronal damage in the hippocampus that can be observed 3 to 7 days after KA administration, and with aberrant axonal sprouting of the dentate gyrus mossy fibers that can be observed at 7-8 weeks after KA administration. We tested the effect of compound XIV on i) epileptic activity (persistence of recurrent seizures), ii) neurodegeneration, neuroinflammation and the resulting brain tissue damage and iii) aberrant axonal sprouting of the dentate gyrus mossy fibers.
FVB/N adult male mice were injected with a single dose of KA (40-45 mg/kg s.c.) to generate mice with spontaneous recurrent seizures as a hallmark of SE. A negative control group of mice were administered saline 0.9% instead of KA and no further treatment (“SHAM”, n=5). Thirty minutes after the onset of SE, mice received either an intravenous (tail vein) bolus injection of compound XIV at the dose of 4 mg/kg eq. NT (treatment group “SE+HT”, n=5) or saline 0.9% (group “SE”, n=5), or a high dose of diazepam (DZP) at 15 mg/kg), a potent anti-convulsive and anti-epileptic drug (positive control group “SE+DZP”). Body temperature was monitored before KA injection and then every 15 min during 6 hours thereafter, using a rectal probe. During this period, mice were assessed for the occurrence and severity of motor seizures. One week later, animals were sacrificed for histological assessment of neuronal cell death on coronal sections, the hippocampal formation being the main structure in the brain showing tissue damage in this model of excitotoxicity. Another group of animals with the same treatments was sacrificed 8 weeks for histological assessment of aberrant axonal sprouting of the dentate gyrus mossy fibers.
Administration of KA (40-45 mg/kg; s.c.) caused characteristic sequential behavioral changes. Immediately after being injected, all animals developed immobility (stage 1). Within 30 minutes after KA injection, automatisms with head nodding, forelimb clonus and circling behavior (stages 2-3) were observed. Then most animals progressed to intermittent (stage 4) followed by continuous (stage 5) rearing with forelimb clonus and falling behavior. […] Only animals attaining at least Racine stage 5 seizures were included in the study. The SE occurred around 2 hours after KA injection, was characterized by stage 5-6 seizures and often associated with hyperthermia (FIG. 13A). Compound XIV administered 30 min after SE onset (SE30) invariably led to transient hypothermia (FIG. 13A), which persisted at least 2 hrs. Mean decreases in body temperature (BT) of −2.5° C. and −3.6° C. were respectively recorded for SE30+ compound XIV animals as compared to SE animals (F=52.34; ***P<0.001). […] SE30+ compound XIV animals presented an average of stage 2 seizures or fewer during the rest of experiment. A subset of animals was administered i.p. a high dose of diazepam (DZP). […] Thus, administration of compound XIV at the dose of 4 mg/kg eq. […] This effect correlated with a −3 to −6° C. decrease in body temperature during ˜2.5 hours.
Using the anti-NeuN antibody and Fluoro-jade C that respectively label a neuronspecific nuclear protein and neuronal death, we observed a broad loss of CA1 and CA3 pyramidal cells as well as some dentate hilar neurons in the hippocampus of control SE animals (FIG. 14A, panel B), as compared to SHAM animals (FIG. 14A, panel A).
SE-induced gliosis involved microglia and astroglial cell types. We used GFAP and Iba1 immunolabeling to estimate the effect of compound XIV on neuroinflammation. In SHAM animals, a basal labeling for GFAP and Iba1 was detected in the HF (FIG. 14A, panel D). In SE animals, a very strong activation of glial cells occurred in all hippocampal layers (FIG. 14, panels E, H). […]

[2] = biological target: T1, human neurotensin receptor type 1 (hNTR-1) (Homo sapiens, UniProt P30989); experiment: Competition binding assay with [3H]-neurotensin on human NTR-1 membranes (CHO cells); settings: read-out: NTR-1 binding affinity Ki, Human NTR-1
T1 construct: purchased PerkinElmer; host or cells: CHO cells stably expressing human NTR-1 (membrane homogenates)
T1 sequence (P30989 whole entry): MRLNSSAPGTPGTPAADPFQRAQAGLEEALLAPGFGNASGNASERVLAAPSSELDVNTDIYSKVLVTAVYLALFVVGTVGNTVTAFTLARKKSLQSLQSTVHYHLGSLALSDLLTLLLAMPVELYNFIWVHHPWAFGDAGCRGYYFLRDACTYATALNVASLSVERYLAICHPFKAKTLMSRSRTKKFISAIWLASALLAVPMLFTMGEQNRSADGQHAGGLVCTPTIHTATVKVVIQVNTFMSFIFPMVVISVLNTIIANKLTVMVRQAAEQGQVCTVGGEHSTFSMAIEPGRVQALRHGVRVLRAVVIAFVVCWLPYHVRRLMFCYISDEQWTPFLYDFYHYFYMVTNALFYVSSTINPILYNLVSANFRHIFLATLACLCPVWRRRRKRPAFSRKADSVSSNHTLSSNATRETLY

[3] = system: Sprague-Dawley rats; experiment: Hypothermic response after i.v. bolus in Sprague-Dawley rats; type: in vivo, rat; settings: 5 mg/kg eq. NT i.v. bolus
[4] = biological target: T2, rat neurotensin receptor type 1 (rNTR-1) (Rattus norvegicus, UniProt P20789); experiment: Competition binding assay with [3H]-neurotensin on rat NTR-1 membranes (HEK293 cells); settings: read-out: NTR-1 binding affinity Ki, Rat NTR-1
T2 construct: host or cells: HEK293 cells (membrane homogenates)
T2 sequence (P20789 whole entry): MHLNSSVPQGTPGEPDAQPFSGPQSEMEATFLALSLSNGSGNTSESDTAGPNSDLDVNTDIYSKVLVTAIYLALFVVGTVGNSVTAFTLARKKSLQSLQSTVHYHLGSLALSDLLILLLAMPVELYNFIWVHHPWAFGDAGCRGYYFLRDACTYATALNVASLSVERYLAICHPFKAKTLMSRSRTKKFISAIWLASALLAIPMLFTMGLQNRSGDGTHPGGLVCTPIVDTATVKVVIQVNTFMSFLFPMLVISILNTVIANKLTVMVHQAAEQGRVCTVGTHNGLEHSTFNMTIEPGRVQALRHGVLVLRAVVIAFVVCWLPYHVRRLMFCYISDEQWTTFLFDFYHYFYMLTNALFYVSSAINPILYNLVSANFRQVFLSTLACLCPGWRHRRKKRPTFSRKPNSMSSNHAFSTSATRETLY

CN1C(=O)CN=C(c2ccccc2)c2cc(Cl)ccc21 [DZP, diazepam, reference compound]
effect on body temperature (BT) compared with SE animals [1]: hypothermia was also observed | glial inflammatory response in the hippocampus (GFAP, Iba1) compared with SE animals [1]: significantly decreased | seizure stage (Racine) during the rest of the experiment [1]: 1-2 stage | number of mossy fiber terminals innervating the IML (ZnT3) compared with SE animals ([1]; 8 weeks after SE): considerably reduced | neurodegeneration in the hippocampus (NeuN, Fluoro-jade C) compared with SE animals ([1]; one week later): significantly decreased

CCC(=O)N[C@@H]1CSSC[C@@H](C(=O)N[C@@H](CCCNC(=N)N)C(=O)N[C@@H](CCCNC(=N)N)C(=O)N2CCC[C@H]2C(=O)N[C@@H](Cc2c[nH]c3ccccc23)C(=O)N[C@H](C(=O)N[C@@H](CC(C)C)C(=O)O)C(C)(C)C)NC(=O)CN(C)C(=O)[C@H](CCCNC(=N)N)NC(=O)[C@H](CC(C)C)NC(=O)[C@H](CCCNC(=N)N)NC(=O)[C@@H]2CCCCN2C(=O)[C@H](CCSC)NC1=O [XVIII, Pr-cMPipRLRSarC-RRPWTIeL-OH] (Propionyl-[dC]M[Pip]RLR[Sar]CRRPW[Tle]L-OH; disulfide 1-8)
Ki [2]: 2980 ± 1080 pM | Maximal decrease in body temperature ([3]; 90 min post-injection): around −2.8 °C | Ki [4]: 20 ± 10 pM

CCC(=O)N[C@@H]1CSSC[C@@H](C(=O)N[C@@H](CCCNC(=N)N)C(=O)N[C@@H](CCCNC(=N)N)C(=O)N2CCC[C@H]2C(=O)N[C@@H](Cc2ccc(O)cc2)C(=O)N[C@H](C(=O)N[C@@H](CC(C)C)C(=O)O)[C@@H](C)CC)NC(=O)CN(C)C(=O)[C@H](CCCNC(=N)N)NC(=O)[C@H](CC(C)C)NC(=O)[C@H](CCCNC(=N)N)NC(=O)[C@@H]2CCCCN2C(=O)[C@H](CCSC)NC1=O [Compound IX, Pr-cMPipRLRSarC-RRPYIL-OH]
Maximal decrease in body temperature ([3]; 30 min post-injection): −1.2 °C

CCC(=O)N[C@@H]1CSSC(C)(C)[C@@H](C(=O)N[C@@H](CCCCN)C(=O)N[C@@H](CCCNC(=N)N)C(=O)N2CCC[C@H]2C(=O)N[C@@H](Cc2ccc(O)cc2)C(=O)N[C@H](C(=O)N[C@@H](CC(C)C)C(=O)O)C(C)(C)C)NC(=O)CN(C)C(=O)[C@H](CCCNC(=N)N)NC(=O)[C@H](CC(C)C)NC(=O)[C@H](CCCNC(=N)N)NC(=O)[C@@H]2CCCCN2C(=O)[C@H](CCSC)NC1=O [XX, Pr-cMPipRLRSarPen-KRPYTIeL-OH] (Propionyl-[dC]M[Pip]RLR[Sar][Pen]KRPY[Tle]L-OH; disulfide 1-8)
Ki [2]: 110 ± 30 pM | Maximal decrease in body temperature ([3]; 60 to 90 min post-injection): around −2 °C | Ki [4]: 80 ± 60 pM

CCC(=O)N[C@@H]1CSSC[C@@H](C(=O)N[C@@H](CCCNC(=N)N)C(=O)N[C@@H](CCCNC(=N)N)C(=O)N2CCC[C@H]2C(=O)N[C@@H](Cc2ccc(O)cc2)C(=O)N[C@H](C(=O)N[C@@H](CC(C)C)C(=O)O)C(C)(C)C)NC(=O)CN(C)C(=O)[C@H](CCCNC(=N)N)NC(=O)[C@H](CC(C)C)NC(=O)[C@H](CCCNC(=N)N)NC(=O)[C@@H]2CCCCN2C(=O)[C@H](CCSC)NC1=O [Compound XV, Pr-cMPipRLRSarC-RRPYTIeL-OH] (Propionyl-[dC]M[Pip]RLR[Sar]CRRPY[Tle]L-OH; disulfide 1-8)
Ki [2]: 400 ± 200 pM | Maximal decrease in body temperature ([3]; 60 to 90 min post-injection): around −2 °C | Ki [4]: 60 ± 20 pM

CCC(=O)N[C@@H]1CSSC[C@@H](C(=O)N[C@@H](CCCCN)C(=O)N[C@@H](CCCNC(=N)N)C(=O)N2CCC[C@H]2C(=O)N[C@@H](Cc2ccc(O)cc2)C(=O)N[C@H](C(=O)N[C@@H](CC(C)C)C(=O)O)C(C)(C)C)NC(=O)CN(C)C(=O)[C@H](CCCNC(=N)N)NC(=O)[C@H](CC(C)C)NC(=O)[C@H](CCCNC(=N)N)NC(=O)[C@@H]2CCCCN2C(=O)[C@H](CCSC)NC1=O [XVI, Pr-cMPipRLRSarC-KRPYTIeL-OH] (Propionyl-[dC]M[Pip]RLR[Sar]CKRPY[Tle]L-OH; disulfide 1-8)
Ki [2]: 150 ± 60 pM | Maximal decrease in body temperature ([3]; 60 to 90 min post-injection): around −2 °C

CCC(=O)N[C@@H]1CSSC[C@@H](C(=O)N[C@@H](CCCCN)C(=O)N[C@@H](CCCNC(=N)N)C(=O)N2CCC[C@H]2C(=O)N[C@@H](Cc2c[nH]c3ccccc23)C(=O)N[C@H](C(=O)N[C@@H](CC(C)C)C(=O)O)C(C)(C)C)NC(=O)CN(C)C(=O)[C@H](CCCNC(=N)N)NC(=O)[C@H](CC(C)C)NC(=O)[C@H](CCCNC(=N)N)NC(=O)[C@@H]2CCCCN2C(=O)[C@H](CCSC)NC1=O [XIX, Pr-cMPipRLRSarC-KRPWTIeL-OH] (Propionyl-[dC]M[Pip]RLR[Sar]CKRPW[Tle]L-OH; disulfide 1-8)
Ki [2]: 6340 ± 2250 pM | Maximal decrease in body temperature ([3]; 90 min post-injection): around −2.8 °C | Ki [4]: 30 ± 20 pM

CCC(=O)N[C@@H]1CSSC[C@@H](C(=O)N[C@@H](CCCNC(=N)N)C(=O)N[C@@H](CCCCN)C(=O)N2CCC[C@H]2C(=O)N[C@@H](Cc2ccc(O)cc2)C(=O)N[C@H](C(=O)N[C@@H](CC(C)C)C(=O)O)C(C)(C)C)NC(=O)CN(C)C(=O)[C@H](CCCNC(=N)N)NC(=O)[C@H](CC(C)C)NC(=O)[C@H](CCCNC(=N)N)NC(=O)[C@@H]2CCCCN2C(=O)[C@H](CCSC)NC1=O [XVII, Pr-cMPipRLRSarC-RKPYTIeL-OH] (Propionyl-[dC]M[Pip]RLR[Sar]CRKPY[Tle]L-OH; disulfide 1-8)
Ki [2]: 470 ± 190 pM | Maximal decrease in body temperature ([3]; 60 to 90 min post-injection): around −2 °C | Ki [4]: 190 ± 70 pM
